ChEMBL document CHEMBL3045224, “New insecticidal compounds, communesins C, D and E, from Penicillium expansum link MK-57” (2004)

tested on: Bombyx mori; test: Insecticidal activity against po dosed third-instar larvae of Bombyx mori assessed as gram of diet; format: functional

SMILES	LD50 [mg/kg]
C/C=C/C=C/C(=O)N1CC[C@@]23c4ccccc4N[C@@H]4N(C=O)c5cccc6c5[C@@]42CCN([C@@H]13)[C@@H]6[C@H]1OC1(C)C [COMMUNESIN D]	80
C/C=C/C=C/C(=O)N1CC[C@@]23c4ccccc4N[C@@H]4Nc5cccc6c5[C@@]42CCN([C@@H]13)[C@@H]6[C@H]1OC1(C)C [COMMUNESIN C]	300
CC(=O)N1CC[C@@]23c4ccccc4N[C@@H]4N(C)c5cccc6c5[C@@]42CCN([C@@H]13)[C@@H]6[C@H]1OC1(C)C [COMMUNESIN A]	150
C/C=C/C=C/C(=O)N1CC[C@@]23c4ccccc4N[C@@H]4N(C)c5cccc6c5[C@@]42CCN([C@@H]13)[C@@H]6[C@H]1OC1(C)C [COMMUNESIN B]	5
CC(=O)N1CC[C@@]23c4ccccc4N[C@@H]4N(C)c5cccc6c5[C@@]42CCN([C@@H]6C=C(C)C)[C@@H]13 [COMMUNESIN E]	80
